Laboratory results from patent US20210379010A1, “COMPOSITIONS COMPRISING CANNABINOIDS FOR USE IN THE TREATMENT OF BIOFILM AND CONDITIONS ASSOCIATED WITH MICROBIAL, FUNGAL, BACTERIAL INFECTIONS” (Yissum Research Development Company of The Hebrew …, priority 2018, published 2021).
Converted amounts (≈) assume the structure as drawn. “And” between values parts separate entries of the source, which are not always exact repeats. Identical values can stand only once.

Columns and labels:
MRSA strain CI = assay: Colony spreading on soft agar, MRSA CI
Experimental: (§1) The swimming assay was performed on soft agar plates. 0.2% agar medium was prepared and autoclaved. The bacteria were exposed to the tested agents. 3 μl of overnight bacterial culture (O.D 595˜0.5) was inoculated at the centre of the agar plate. […] The plates were then incubated for 15 h.

S. mutans biofilm [1] = assay: S. mutans biofilm formation inhibition; assay type: cell-based
S. aureus MRSA 24433 = assay: Growth of MRSA 24433, cannabinoid alone and combined with antibiotic (MIC/FIC/FICI); assay type: cell-based; settings: MRSA 24433 growth; for MIC AEA: AEA alone; for FIC AEA: MIC of AEA in combination with methicillin
S.aureus MRSA 43300 = assay: Growth of MRSA 43300, cannabinoid alone and combined with antibiotic (MIC/FIC/FICI); assay type: cell-based; settings: MRSA 43300 growth; for MIC AEA: AEA alone; for MIC ARAS: ARAS alone
C. albicans biofilm [2] = assay: MTT assay of C. albicans biofilm; assay type: cell-based
Experimental: To investigate the effect of the agents on preformed biofilms, biofilms were allowed to mature in for 24 h at 37° C. in a 6-well plate. The biofilms were washed twice with PBS. The active agents were then applied. The plates were further incubated for 24 h at 37° C. The amounts of biofilms, were determined quantitatively using a standard MTT reduction assay as described previously. Briefly, biofilms were overlaid with […] of 3-(4,5-dimethyl-2-thiazolyl)-2,5-diphenyl-2H-tetrazolium bromide (MTT) and incubated for 2 h at 37° C. Under these conditions, the lightly yellowish MTT was reduced to a blue tetrazolium salt accumulated within the metabolic active biofilms. The stain was then dissolved in DMSO and the absorbance value was measured at 570 nm. The accumulation of tetrazolium salt by the reduction of MTT is proportional to the number of viable cells growing in biofilm. Prior to dissolving in DMSO, biofilms were photographed and visualized. Assay was performed in triplicate.

P. aeruginosa biofilm = assay: CLSM of treated P. aeruginosa biofilm
S. mutans biofilm [3] = assay: CLSM live/dead staining of S. mutans biofilm
Experimental: The bacterial viability and vitality of was analyzed by CLSM (Olympus Fluoview 300, Olympus, Japan) with a UPLSA 10×/0.4 lenses. The biofilm samples were grown overnight on 96 well. The biofilm was washed carefully using 200 μl PBS solution after overnight incubation, and then stained with 50 μl of LIVE/DEAD BacLight fluorescent dye (Invitrogen Life Technologies, Carlsbad, Calif., USA) (1:100) for 20 min in the dark, at room temperature. This staining allowed to distinguish the live organisms from the dead ones. […] The biofilm thickness was examined by generating the optical sections that were acquired at spacing steps of 10 μm Image J program (The National Institute of Health) was used for fluorescence analysis which calculates the fluorescence intensity per area for each color separately.

[4] = system: S.aureus MRSA 33592 biofilm; assay: Biofilm formation of MRSA 33592, cannabinoid alone and combined with antibiotic (MBIC/FBIC/FBICI); assay type: cell-based; settings: for MBIC AEA: AEA alone; for MBIC ARAS: ARAS alone
MRSA strain 33592 = assay: Colony spreading on soft agar, MRSA 33592
Experimental: as §1

[5] = system: S.aureus MRSA 43300 biofilm; assay: Biofilm formation of MRSA 43300, cannabinoid alone and combined with antibiotic (MBIC/FBIC/FBICI); assay type: cell-based; settings: for MBIC AEA: AEA alone; for MBIC ARAS: ARAS alone
MRSA strain 43300 = assay: Colony spreading on soft agar, MRSA 43300
Experimental: as §1

S.aureus MRSA 33592 = assay: Growth of MRSA 33592, cannabinoid alone and combined with antibiotic (MIC/FIC/FICI); assay type: cell-based; settings: MRSA 33592 growth; for MIC AEA: AEA alone, in µg/mL; for MIC ARAS: ARAS alone
[6] = system: V. harveyi quorum sensing; assay: Quorum sensing assay, relative bioluminescence of V. harveyi mutant strains; assay type: cell-based; settings: sub-MIC concentrations, dose response up to 100 μg/ml
Description: FIG. 6 Relative Bioluminescence Unit (LUM/(O.D(595 nm))) (RLU) of different mutant strains of bacteria V. harveyi when exposed to different sub-MIC concentrations of AEA.

[7] = system: S. aureus MRSA 24433 biofilm; assay: Biofilm formation of MRSA 24433, cannabinoid alone and combined with antibiotic (MBIC/FBIC/FBICI); assay type: cell-based; settings: for MBIC AEA: AEA alone; for FBIC AEA: MBIC of AEA in combination with methicillin
[8] = system: mixed C. albicans-S. mutans biofilm; assay: Co-species C. albicans-S. mutans biofilm formation inhibition; assay type: cell-based
C. albicans = C. albicans growth (MIC); assay type: cell-based; settings: Candida albicans; single C. albicans growth; highest tested dose 64 μg/ml; read-out: MIC, fungal growth
[9] = system: fluconazole resistant C. albicans strains; assay type: cell-based; settings: each agent alone or in combination; data not shown
[10] = system: fluconazole resistant C. albicans strain DSY735 biofilm; settings: Table 2
[11] = system: fluconazole resistant C. albicans strain DSY551 biofilm; settings: Table 2
C. albicans biofilm [12] = assay: C. albicans biofilm formation inhibition; assay type: cell-based; settings: single C. albicans biofilm formation
S. mutans = S. mutans growth (MIC); assay type: cell-based; settings: Streptococcus mutans; single S. mutans growth; read-out: MIC
[13] = system: mixed S. mutans-C. albicans; assay: Growth of C. albicans-S. mutans co-culture; assay type: cell-based; settings: mixed S. mutans-C. albicans growth
[14] = MBIC of ARAS in combination with fluconazole

CCCCC/C=C\C/C=C\C/C=C\C/C=C\CCCC(=O)NCCO [AEA, arachidonoyl ethanolamide]
reduction of colony diameter (spreading) vs untreated control (MRSA strain CI; AEA 64 μg/ml): 88% and 88 ± 1.9% | inhibition of S. mutans biofilm formation (S. mutans biofilm [1]; highest tested dose of 64 μg/ml): 45% | MIC AEA (S. aureus MRSA 24433; Table 1): >64 µg/mL | MIC AEA (S. aureus MRSA 24433; Table 6B): > 256 µg/mL | FIC AEA (S. aureus MRSA 24433; Table 1): 16 µg/mL | FIC AEA (S. aureus MRSA 24433; Table 6B): 16 | MIC AEA (S.aureus MRSA 43300; Table 6C): > 256 µg/mL | MIC AEA (S.aureus MRSA 43300; Table 8B): > 256 µg/mL | FIC AEA (S.aureus MRSA 43300; MIC of AEA in combination with ampicillin, Table 8B): 16 | FIC AEA (S.aureus MRSA 43300; MIC of AEA in combination with methicillin, Table 6C): 16 | C. albicans biofilm formation (MTT assay) (C. albicans biofilm [2]): dose-dependent inhibition | layers/depth of P. aeruginosa biofilm (P. aeruginosa biofilm): reduced layers/depth of biofilm | P. aeruginosa biofilm density (P. aeruginosa biofilm; compared with PEA): more significant reduction in biofilm density | S. mutans biofilm formation (CLSM) (S. mutans biofilm [3]): dose-dependent inhibition | MBIC AEA ([4]; Table 6A): 64 | MBIC AEA ([4]; Table 7): 64 | MBIC AEA ([4]; Table 8A): 64 | FBIC AEA ([4]; MBIC of AEA in combination with ampicillin, Table 8A): 8 | FBIC AEA ([4]; MBIC of AEA in combination with gentamicin, Table 7): 8 | FBIC AEA ([4]; MBIC of AEA in combination with methicillin, Table 6A): 8 | reduction of colony diameter (spreading) vs untreated control (MRSA strain 33592; AEA 64 μg/ml): 84% and 84 ± 1.8% | MBIC AEA ([5]; Table 6C): >256 | MBIC AEA ([5]; Table 8B): >256 | FBIC AEA ([5]; MBIC of AEA in combination with ampicillin, Table 8B): 16 | FBIC AEA ([5]; MBIC of AEA in combination with methicillin, Table 6C): 32 | reduction of colony diameter (spreading) vs untreated control (MRSA strain 43300; AEA 64 μg/ml): 73% and 73 ± 2.6% | MIC AEA (S.aureus MRSA 33592; Table 6A): >256 | MIC AEA (S.aureus MRSA 33592; Table 7): >256 | MIC AEA (S.aureus MRSA 33592; Table 8A): >256 | decrease of MIC in combination (S.aureus MRSA 33592; AEA with gentamicin vs agent alone): more than 32 fold | FIC AEA (S.aureus MRSA 33592; MIC of AEA in combination with ampicillin, Table 8A): 8 | FIC AEA (S.aureus MRSA 33592; MIC of AEA in combination with gentamicin, Table 7): 8 | FIC AEA (S.aureus MRSA 33592; MIC of AEA in combination with methicillin, Table 6A): 16 | quorum sensing (relative bioluminescence, AUC vs control) [6]: inhibition | MBIC AEA ([7]; Table 1): 32 µg/mL | MBIC AEA ([7]; Table 6B): 32 | FBIC AEA ([7]; Table 1): 8 µg/mL | FBIC AEA ([7]; Table 6B): 8

CCCCC/C=C\C/C=C\C/C=C\C/C=C\CCCC(=O)N[C@@H](CO)C(=O)O [ARAS, arachidonoyl serine]
inhibition of colony spreading vs untreated control (MRSA strain CI; ARAS 64 μg/ml (sub-MIC)): 64% and 64 ± 2.5% | inhibition at 8 µg/mL (S. mutans biofilm [1]; Streptococcus mutans, 8 μg/ml, read-out: inhibition of single S. mutans biofilm formation): > 50% | MIC ARAS (S. aureus MRSA 24433; ARAS alone, Table 3B): > 256 µg/mL | FIC ARAS (S. aureus MRSA 24433; MIC of ARAS in combination with methicillin, Table 3B): >64 | MIC ARAS (S.aureus MRSA 43300; Table 3C): 64 µg/mL | MIC ARAS (S.aureus MRSA 43300; Table 5B): 64 µg/mL | FIC ARAS (S.aureus MRSA 43300; MIC of ARAS in combination with ampicillin, Table 5B): 16 | FIC ARAS (S.aureus MRSA 43300; MIC of ARAS in combination with methicillin, Table 3C): 16 | MBIC50 [8]: 32 µg/mL | MIC (C. albicans): > 64 µg/mL | MBIC ARAS ([4]; Table 3A): 32 | MBIC ARAS ([4]; Table 4): 32 | MBIC ARAS ([4]; Table 5A): 32 | FBIC ARAS ([4]; MBIC of ARAS in combination with ampicillin, Table 5A): 16 | FBIC ARAS ([4]; MBIC of ARAS in combination with gentamycin, Table 4): 4 | FBIC ARAS ([4]; MBIC of ARAS in combination with methicillin, Table 3A): 16 | inhibition of colony spreading vs untreated control (MRSA strain 33592; ARAS 16 μg/ml (sub-MIC)): 65% and 65 ± 3.4% | growth of fluconazole resistant fungal strains [9]: not affected | MBIC ARAS ([10]; ARAS alone): 64 µg/mL | FBIC ARAS [10, 14]: 32 µg/mL | MBIC ARAS ([5]; Table 3C): 32 | MBIC ARAS ([5]; Table 5B): 32 | FBIC ARAS ([5]; MBIC of ARAS in combination with ampicillin, Table 5B): 8 | FBIC ARAS ([5]; MBIC of ARAS in combination with methicillin, Table 3C): 8 | MBIC ARAS ([11]; ARAS alone): 64 µg/mL | FBIC ARAS [11, 14]: 32 µg/mL | MBIC50 (minimal biofilm inhibitory concentration 50, 50% of biofilm inhibition) (C. albicans biofilm [12]): 16 µg/mL | inhibition of colony spreading vs untreated control (MRSA strain 43300; ARAS 32 μg/ml (sub-MIC)): 46% and 46 ± 2.8% | MIC ARAS (S.aureus MRSA 33592; Table 3A): 64 µg/mL | MIC ARAS (S.aureus MRSA 33592; Table 4): 32 µg/mL | MIC ARAS (S.aureus MRSA 33592; Table 5A): 32 µg/mL | FIC ARAS (S.aureus MRSA 33592; MIC of ARAS in combination with ampicillin, Table 5A): 8 | FIC ARAS (S.aureus MRSA 33592; MIC of ARAS in combination with gentamycin, Table 4): 4 | FIC ARAS (S.aureus MRSA 33592; MIC of ARAS in combination with methicillin, Table 3A): 16 | MIC (S. mutans): 64 µg/mL (≈ 163 µM) | MIC [13]: > 64 µg/mL | MBIC ARAS ([7]; ARAS alone, Table 3B): 32 | FBIC ARAS ([7]; MBIC of ARAS in combination with methicillin, Table 3B): 16
